Data as given in ChEMBL document CHEMBL4507291 (2021).

Columns and labels:
[1] = biological target: Calcium/calmodulin-dependent protein kinase kinase 1 (Homo sapiens) (UniProt Q8N5S9); assay: CAMKK1 (CAMKKA) Kinase screen; conditions: Compound concentration 1.0 uM
[2] = biological target: T1, G protein-coupled receptor kinase 3 (Homo sapiens) (UniProt P35626); assay: ADRBK2 (GRK3) Kinase screen; conditions: Compound concentration 1.0 uM
T1 sequence (whole entry): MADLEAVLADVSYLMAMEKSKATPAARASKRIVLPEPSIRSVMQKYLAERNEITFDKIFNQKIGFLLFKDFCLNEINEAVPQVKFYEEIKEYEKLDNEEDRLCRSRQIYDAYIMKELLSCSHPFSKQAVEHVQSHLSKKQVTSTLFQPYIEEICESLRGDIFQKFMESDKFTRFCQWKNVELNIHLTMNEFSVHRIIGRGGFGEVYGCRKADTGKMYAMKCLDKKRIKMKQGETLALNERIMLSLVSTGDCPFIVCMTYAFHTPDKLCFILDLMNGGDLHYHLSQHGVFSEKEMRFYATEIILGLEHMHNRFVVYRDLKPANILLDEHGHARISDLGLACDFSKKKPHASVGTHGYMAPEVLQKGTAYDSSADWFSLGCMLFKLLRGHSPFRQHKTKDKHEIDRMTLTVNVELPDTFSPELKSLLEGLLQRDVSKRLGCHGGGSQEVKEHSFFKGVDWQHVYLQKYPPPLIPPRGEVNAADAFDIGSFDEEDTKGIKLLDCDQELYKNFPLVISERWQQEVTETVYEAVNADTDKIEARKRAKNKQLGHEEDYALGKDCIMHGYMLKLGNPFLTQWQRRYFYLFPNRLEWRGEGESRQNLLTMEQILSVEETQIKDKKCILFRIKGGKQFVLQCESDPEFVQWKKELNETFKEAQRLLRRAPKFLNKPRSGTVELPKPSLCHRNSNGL

[3] = biological target: T2, Serine/threonine-protein kinase D1 (Homo sapiens) (UniProt Q15139); assay: PRKD1 (PKC mu) Kinase screen; conditions: Compound concentration 1.0 uM
T2 sequence (whole entry): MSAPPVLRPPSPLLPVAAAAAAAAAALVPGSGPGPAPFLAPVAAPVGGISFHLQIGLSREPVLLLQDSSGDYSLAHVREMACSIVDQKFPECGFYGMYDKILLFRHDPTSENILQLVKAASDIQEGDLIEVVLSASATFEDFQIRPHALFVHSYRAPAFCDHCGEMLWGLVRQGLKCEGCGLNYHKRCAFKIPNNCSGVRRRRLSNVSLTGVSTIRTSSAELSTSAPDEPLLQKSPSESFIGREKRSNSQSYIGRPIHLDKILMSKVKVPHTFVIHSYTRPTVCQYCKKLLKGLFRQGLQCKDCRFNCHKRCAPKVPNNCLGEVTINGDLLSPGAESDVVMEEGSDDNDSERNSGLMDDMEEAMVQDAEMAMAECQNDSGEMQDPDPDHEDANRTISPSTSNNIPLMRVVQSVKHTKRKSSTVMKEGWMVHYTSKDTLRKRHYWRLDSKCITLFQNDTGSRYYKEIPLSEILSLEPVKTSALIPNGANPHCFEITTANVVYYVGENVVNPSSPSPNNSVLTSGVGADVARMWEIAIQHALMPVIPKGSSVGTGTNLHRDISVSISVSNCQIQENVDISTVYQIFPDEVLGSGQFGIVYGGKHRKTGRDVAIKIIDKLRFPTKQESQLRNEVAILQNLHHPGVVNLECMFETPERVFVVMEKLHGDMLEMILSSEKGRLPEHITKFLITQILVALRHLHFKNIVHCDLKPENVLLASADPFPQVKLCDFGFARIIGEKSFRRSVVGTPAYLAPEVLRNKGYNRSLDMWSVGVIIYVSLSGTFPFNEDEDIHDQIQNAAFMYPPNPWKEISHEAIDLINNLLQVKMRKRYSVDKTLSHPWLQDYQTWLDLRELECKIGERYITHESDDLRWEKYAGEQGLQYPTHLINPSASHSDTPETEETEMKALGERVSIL

[4] = biological target: Serine/threonine-protein kinase 33 (Homo sapiens) (UniProt Q9BYT3); assay: STK33 Kinase screen; conditions: Compound concentration 1.0 uM
[5] = biological target: Tyrosine-protein kinase BTK (Homo sapiens) (UniProt Q06187); assay: BTK Kinase screen; conditions: Compound concentration 1.0 uM
[6] = biological target: Rho-associated protein kinase 1 (Homo sapiens) (UniProt Q13464); assay: ROCK1 Kinase screen; conditions: Compound concentration 1.0 uM
[7] = biological target: Serine/threonine-protein kinase PAK 1 (Homo sapiens) (UniProt Q13153); assay: PAK1 Kinase screen; conditions: Compound concentration 1.0 uM
[8] = biological target: Hepatocyte growth factor receptor (Homo sapiens) (UniProt P08581); assay: MET (cMet) Kinase screen; conditions: Compound concentration 1.0 uM
[9] = biological target: T3, Ephrin type-B receptor 1 (Homo sapiens) (UniProt P54762); assay: EPHB1 Kinase screen; conditions: Compound concentration 1.0 uM
T3 sequence (whole entry): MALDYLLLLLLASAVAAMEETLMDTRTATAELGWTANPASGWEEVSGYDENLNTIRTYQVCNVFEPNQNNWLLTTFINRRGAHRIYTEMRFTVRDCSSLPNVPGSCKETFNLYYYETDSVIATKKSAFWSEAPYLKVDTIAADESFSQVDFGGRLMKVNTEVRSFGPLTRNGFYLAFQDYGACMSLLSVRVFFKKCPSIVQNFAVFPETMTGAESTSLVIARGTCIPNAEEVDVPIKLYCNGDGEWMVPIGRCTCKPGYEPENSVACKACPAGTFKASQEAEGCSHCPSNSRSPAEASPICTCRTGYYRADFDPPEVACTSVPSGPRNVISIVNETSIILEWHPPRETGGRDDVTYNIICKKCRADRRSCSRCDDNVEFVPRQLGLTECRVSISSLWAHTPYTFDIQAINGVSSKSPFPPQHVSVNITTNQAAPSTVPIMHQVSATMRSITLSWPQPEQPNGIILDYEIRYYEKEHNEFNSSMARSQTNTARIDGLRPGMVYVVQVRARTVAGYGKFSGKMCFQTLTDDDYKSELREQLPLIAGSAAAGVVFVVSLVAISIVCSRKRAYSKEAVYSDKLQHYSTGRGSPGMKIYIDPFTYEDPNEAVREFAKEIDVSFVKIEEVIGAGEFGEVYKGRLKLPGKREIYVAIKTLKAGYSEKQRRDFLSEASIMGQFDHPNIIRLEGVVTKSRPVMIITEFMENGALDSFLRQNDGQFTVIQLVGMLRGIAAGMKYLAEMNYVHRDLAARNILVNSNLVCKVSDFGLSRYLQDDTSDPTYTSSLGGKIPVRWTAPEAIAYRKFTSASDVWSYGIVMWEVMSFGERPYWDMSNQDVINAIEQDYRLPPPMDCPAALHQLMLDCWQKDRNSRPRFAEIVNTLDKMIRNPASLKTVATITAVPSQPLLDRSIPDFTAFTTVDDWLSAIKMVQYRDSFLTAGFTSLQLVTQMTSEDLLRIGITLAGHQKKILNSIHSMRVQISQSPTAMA

[10] = biological target: MAP kinase-interacting serine/threonine-protein kinase 2 (Homo sapiens) (UniProt Q9HBH9); assay: MKNK2 (MNK2) Kinase screen; conditions: Compound concentration 1.0 uM
[11] = biological target: Histamine H4 receptor (Homo sapiens) (UniProt Q9H3N8); assay: Histamine H4 Eurofins-Panlabs radioligand binding assay; conditions: Compound concentration 10.0 uM
[12] = biological target: Type-1 angiotensin II receptor (Homo sapiens) (UniProt P30556); conditions: Compound concentration 10.0 uM

Measured: inhibition

Sequence of Hepatocyte growth factor receptor (Homo sapiens) (P08581 whole entry): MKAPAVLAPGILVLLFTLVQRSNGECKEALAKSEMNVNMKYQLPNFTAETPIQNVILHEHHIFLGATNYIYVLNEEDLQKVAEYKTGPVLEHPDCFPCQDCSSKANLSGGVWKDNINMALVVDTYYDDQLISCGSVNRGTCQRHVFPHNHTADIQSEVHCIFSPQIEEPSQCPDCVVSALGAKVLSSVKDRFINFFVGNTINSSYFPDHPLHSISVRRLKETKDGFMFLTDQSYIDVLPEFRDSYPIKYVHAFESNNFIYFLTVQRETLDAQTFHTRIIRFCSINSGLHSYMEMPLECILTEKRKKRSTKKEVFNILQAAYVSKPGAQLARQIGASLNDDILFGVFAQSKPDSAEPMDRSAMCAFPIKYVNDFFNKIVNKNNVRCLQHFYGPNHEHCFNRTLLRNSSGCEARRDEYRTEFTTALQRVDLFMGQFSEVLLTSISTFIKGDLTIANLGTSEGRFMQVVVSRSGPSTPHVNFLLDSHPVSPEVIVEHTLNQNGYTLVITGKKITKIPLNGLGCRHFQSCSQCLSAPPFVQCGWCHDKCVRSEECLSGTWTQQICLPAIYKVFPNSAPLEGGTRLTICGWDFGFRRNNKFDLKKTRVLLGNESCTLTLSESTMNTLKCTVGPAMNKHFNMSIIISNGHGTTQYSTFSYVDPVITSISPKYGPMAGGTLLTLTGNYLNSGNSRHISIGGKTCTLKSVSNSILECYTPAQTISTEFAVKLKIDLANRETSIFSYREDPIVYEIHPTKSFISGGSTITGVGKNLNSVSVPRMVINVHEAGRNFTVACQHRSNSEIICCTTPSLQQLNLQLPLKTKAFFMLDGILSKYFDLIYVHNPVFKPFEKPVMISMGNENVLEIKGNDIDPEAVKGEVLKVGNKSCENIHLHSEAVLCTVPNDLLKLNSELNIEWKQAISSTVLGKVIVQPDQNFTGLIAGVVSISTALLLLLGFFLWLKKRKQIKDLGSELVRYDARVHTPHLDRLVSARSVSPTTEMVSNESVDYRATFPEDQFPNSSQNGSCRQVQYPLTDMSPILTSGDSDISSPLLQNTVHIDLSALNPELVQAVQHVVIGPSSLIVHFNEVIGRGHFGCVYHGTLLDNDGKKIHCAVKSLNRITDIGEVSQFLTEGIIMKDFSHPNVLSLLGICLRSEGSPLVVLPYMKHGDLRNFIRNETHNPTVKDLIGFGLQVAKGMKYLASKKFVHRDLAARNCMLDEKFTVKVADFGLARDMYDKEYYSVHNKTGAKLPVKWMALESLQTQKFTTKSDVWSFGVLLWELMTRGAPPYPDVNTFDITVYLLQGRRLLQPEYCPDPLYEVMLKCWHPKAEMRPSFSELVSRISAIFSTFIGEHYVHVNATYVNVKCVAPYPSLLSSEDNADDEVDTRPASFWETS
Sequence of Serine/threonine-protein kinase PAK 1 (Homo sapiens) (Q13153 whole entry): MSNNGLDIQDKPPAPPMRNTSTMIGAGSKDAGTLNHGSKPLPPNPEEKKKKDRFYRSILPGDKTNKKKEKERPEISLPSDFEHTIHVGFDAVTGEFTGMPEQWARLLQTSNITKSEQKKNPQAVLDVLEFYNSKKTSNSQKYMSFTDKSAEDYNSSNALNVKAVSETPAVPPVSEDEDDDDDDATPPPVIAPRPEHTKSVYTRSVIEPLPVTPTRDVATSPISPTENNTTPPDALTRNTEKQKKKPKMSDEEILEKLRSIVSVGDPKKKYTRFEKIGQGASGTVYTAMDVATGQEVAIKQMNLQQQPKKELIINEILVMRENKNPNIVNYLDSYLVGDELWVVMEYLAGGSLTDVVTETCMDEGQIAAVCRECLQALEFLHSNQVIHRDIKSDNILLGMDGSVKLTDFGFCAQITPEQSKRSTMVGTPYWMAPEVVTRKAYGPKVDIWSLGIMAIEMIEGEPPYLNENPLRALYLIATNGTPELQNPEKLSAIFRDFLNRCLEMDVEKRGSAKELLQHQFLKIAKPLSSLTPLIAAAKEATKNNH
Sequence of Calcium/calmodulin-dependent protein kinase kinase 1 (Homo sapiens) (Q8N5S9 whole entry, looked up): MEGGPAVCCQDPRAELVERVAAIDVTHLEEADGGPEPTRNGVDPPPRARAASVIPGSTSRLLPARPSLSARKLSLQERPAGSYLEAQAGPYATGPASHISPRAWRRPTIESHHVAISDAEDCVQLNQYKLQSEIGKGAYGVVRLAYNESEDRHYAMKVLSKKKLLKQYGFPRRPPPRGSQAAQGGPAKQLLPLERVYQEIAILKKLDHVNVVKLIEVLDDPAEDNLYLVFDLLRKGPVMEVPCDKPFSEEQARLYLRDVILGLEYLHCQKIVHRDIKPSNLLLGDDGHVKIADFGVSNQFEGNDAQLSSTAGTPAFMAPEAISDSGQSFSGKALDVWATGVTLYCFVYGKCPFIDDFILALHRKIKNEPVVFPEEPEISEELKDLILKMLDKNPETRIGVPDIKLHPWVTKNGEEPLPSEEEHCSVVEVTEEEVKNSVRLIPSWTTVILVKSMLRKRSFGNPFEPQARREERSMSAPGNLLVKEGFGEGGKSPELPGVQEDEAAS
Sequence of MAP kinase-interacting serine/threonine-protein kinase 2 (Homo sapiens) (Q9HBH9 whole entry, looked up): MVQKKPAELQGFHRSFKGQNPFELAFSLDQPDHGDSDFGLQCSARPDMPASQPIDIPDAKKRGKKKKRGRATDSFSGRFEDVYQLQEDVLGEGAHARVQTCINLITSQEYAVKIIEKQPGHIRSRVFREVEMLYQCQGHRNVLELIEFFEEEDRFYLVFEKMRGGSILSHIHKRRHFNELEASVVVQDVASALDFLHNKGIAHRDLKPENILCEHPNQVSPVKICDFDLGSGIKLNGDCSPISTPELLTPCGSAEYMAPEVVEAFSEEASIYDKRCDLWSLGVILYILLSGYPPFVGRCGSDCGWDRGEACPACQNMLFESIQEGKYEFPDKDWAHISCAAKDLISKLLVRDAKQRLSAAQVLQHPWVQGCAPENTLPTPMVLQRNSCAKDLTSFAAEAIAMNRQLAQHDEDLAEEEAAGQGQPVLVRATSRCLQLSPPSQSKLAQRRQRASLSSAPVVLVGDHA
Sequence of Rho-associated protein kinase 1 (Homo sapiens) (Q13464 2-1354 limits assumed): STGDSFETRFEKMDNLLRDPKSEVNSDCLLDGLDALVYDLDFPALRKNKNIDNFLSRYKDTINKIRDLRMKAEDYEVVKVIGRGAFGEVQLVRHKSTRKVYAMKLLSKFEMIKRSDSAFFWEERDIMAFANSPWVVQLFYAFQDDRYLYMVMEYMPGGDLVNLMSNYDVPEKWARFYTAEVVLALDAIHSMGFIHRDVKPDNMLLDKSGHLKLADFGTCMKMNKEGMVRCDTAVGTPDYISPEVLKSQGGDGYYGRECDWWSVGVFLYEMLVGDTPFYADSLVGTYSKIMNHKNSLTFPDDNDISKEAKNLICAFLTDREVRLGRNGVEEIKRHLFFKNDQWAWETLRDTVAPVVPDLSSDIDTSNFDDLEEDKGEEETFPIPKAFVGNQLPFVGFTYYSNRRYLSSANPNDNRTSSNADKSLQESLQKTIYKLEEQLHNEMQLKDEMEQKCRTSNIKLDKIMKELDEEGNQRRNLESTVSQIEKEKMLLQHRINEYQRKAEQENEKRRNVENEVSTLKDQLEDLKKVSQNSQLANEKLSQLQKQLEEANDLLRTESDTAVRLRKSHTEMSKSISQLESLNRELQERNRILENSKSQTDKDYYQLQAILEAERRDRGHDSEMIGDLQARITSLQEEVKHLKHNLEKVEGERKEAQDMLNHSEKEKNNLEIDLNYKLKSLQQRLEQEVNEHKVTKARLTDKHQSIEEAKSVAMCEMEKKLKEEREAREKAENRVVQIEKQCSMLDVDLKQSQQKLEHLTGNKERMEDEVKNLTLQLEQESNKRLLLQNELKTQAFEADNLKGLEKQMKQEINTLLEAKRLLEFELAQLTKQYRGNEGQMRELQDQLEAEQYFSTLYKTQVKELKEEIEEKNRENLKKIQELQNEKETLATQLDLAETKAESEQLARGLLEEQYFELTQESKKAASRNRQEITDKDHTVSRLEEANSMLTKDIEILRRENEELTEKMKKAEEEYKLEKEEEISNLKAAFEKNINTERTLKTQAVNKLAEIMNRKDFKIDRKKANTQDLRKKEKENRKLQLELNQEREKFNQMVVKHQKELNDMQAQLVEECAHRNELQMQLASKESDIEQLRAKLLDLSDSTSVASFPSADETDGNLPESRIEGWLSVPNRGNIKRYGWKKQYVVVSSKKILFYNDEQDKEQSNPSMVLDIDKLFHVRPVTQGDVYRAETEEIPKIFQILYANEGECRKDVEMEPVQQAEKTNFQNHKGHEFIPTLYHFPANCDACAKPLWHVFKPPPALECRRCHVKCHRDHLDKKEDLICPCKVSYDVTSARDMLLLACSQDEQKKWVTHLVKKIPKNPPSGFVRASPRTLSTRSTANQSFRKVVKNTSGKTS
Sequence of Serine/threonine-protein kinase 33 (Homo sapiens) (Q9BYT3 whole entry, looked up): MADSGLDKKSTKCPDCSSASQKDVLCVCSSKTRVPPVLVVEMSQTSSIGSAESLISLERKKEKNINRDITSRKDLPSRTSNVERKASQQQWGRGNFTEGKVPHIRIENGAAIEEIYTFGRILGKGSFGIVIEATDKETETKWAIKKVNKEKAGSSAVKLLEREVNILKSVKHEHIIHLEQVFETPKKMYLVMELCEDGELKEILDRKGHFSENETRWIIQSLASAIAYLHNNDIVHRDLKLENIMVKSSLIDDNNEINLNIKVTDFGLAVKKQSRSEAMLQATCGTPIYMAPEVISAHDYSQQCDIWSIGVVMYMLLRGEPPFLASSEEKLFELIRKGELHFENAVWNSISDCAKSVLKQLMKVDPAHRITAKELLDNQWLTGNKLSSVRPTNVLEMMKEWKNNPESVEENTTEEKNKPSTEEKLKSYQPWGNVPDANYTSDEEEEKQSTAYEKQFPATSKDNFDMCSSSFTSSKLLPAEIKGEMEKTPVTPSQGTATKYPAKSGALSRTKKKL

C[C@@H]1CN(c2cc(-c3n[nH]c4ccc(OC5(C)CC5)cc34)ncn2)C[C@H](C)O1 [MLi-2]
inactive: [1] 12.6% | [2] -0.166% | [3] 13.2% | [4] 24.3% | [5] 4.5% | [6] -0.899% | [7] 6.76% | [8] 5.51% | [9] 3.46% | [10] 9.35% | [11] -4% | [12] 8%
